Data from PMC6522912, “Evaluation of the published kinase inhibitor set to identify multiple inhibitors of bacterial ATP-dependent mur ligases” (Journal of Enzyme Inhibition and Medicinal Chemistry, 2019).

Target: E. coli MurF (Escherichia coli, UniProt P11880)
Assay: biochemical
Details: 0.25 h, Table S1, PKIS screening; read-out: RA [%] at 100 µM MurF

Chain of E. coli MurF (P11880 whole entry): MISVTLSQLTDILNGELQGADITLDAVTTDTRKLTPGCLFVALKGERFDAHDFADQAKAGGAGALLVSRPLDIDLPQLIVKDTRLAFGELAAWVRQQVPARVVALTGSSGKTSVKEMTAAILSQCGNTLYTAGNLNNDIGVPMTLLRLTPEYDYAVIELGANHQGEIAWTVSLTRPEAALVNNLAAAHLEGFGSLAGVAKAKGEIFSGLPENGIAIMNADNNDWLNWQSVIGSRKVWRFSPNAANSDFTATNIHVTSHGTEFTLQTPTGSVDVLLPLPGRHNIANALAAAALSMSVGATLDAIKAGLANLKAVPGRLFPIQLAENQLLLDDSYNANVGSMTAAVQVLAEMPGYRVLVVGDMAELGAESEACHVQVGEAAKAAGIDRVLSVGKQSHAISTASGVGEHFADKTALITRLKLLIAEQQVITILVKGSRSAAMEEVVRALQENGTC

Compound	remaining activity at 100 µM [%]
CCCN1CCCC(c2ccc(Nc3nc(Nc4cc(F)ccc4C(N)=O)c4cc[nH]c4n3)c(OC)c2)C1 (centres unmarked) [Compound 5]	16
COc1ccc(-c2nn3ncccc3c2-c2ccnc(Nc3cccc(C(F)(F)F)c3)n2)cc1 [Compound 3]	35
Nc1ccc(C#Cc2cncnc2Nc2ccc(OCc3cccc(F)c3)c(Cl)c2)cc1 [Compound 2]	30
N#Cc1ccc(Oc2nccc(-c3c(-c4ccc(F)cc4)ncn3C3CCNCC3)n2)cc1 [Compound 4]	19
CN1CCC(n2cnc(-c3ccc(F)cc3)c2-c2ccnc(N)n2)CC1 [SB-220455]	100
Fc1ccc(-c2ncn(C3CCNCC3)c2-c2ccnc(Oc3ccc(F)c(F)c3)n2)cc1 [SB-253228]	70
Cc1cc(-c2ccccn2)cc(C)c1/C=C/c1cncc(-c2nn[nH]n2)c1 [GW459057A]	76
c1ccc(Nc2ncc(-c3ccccc3)o2)cc1 [GW549390X]	93
NC(=O)Cc1ccccc1Oc1nccc(-c2c(-c3ccc(F)cc3)ncn2C2CCNCC2)n1 [SB-264865]	98

Same assay, conditions: Table 1

Compound	IC50 [µM]
CCCN1CCCC(c2ccc(Nc3nc(Nc4cc(F)ccc4C(N)=O)c4cc[nH]c4n3)c(OC)c2)C1 (centres unmarked) [Compound 5]	66
Nc1ccc(C#Cc2cncnc2Nc2ccc(OCc3cccc(F)c3)c(Cl)c2)cc1 [Compound 2]	39
N#Cc1ccc(Oc2nccc(-c3c(-c4ccc(F)cc4)ncn3C3CCNCC3)n2)cc1 [Compound 4]	95

Same assay, conditions: Table S2

Compound	residual activity printed in column IC50 MurF [%]
COc1ccc(-c2nn3ncccc3c2-c2ccnc(Nc3cccc(C(F)(F)F)c3)n2)cc1 [Compound 3]	100

Same assay, conditions: ligand efficiency, LE = (1.37 × pIC50)/HAC

Compound	LE (MurF)
CCCN1CCCC(c2ccc(Nc3nc(Nc4cc(F)ccc4C(N)=O)c4cc[nH]c4n3)c(OC)c2)C1 (centres unmarked) [Compound 5]	0.15
Nc1ccc(C#Cc2cncnc2Nc2ccc(OCc3cccc(F)c3)c(Cl)c2)cc1 [Compound 2]	0.19
N#Cc1ccc(Oc2nccc(-c3c(-c4ccc(F)cc4)ncn3C3CCNCC3)n2)cc1 [Compound 4]	0.17

Same assay, conditions: residual activity at 100 µM compound; Table 1

Compound	MurF RA [%]
CCCN1CCCC(c2ccc(Nc3nc(Nc4cc(F)ccc4C(N)=O)c4cc[nH]c4n3)c(OC)c2)C1 (centres unmarked) [Compound 5]	16
COc1ccc(-c2nn3ncccc3c2-c2ccnc(Nc3cccc(C(F)(F)F)c3)n2)cc1 [Compound 3]	100
Nc1ccc(C#Cc2cncnc2Nc2ccc(OCc3cccc(F)c3)c(Cl)c2)cc1 [Compound 2]	30
N#Cc1ccc(Oc2nccc(-c3c(-c4ccc(F)cc4)ncn3C3CCNCC3)n2)cc1 [Compound 4]	51

Target: E. coli MurD (Escherichia coli, UniProt P14900)
Assay: biochemical
Details: 0.25 h, Table S1, PKIS screening; read-out: RA [%] at 100 µM MurD
In short: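 Reaction 15 min at 37 °C, then phosphate detected with Biomol green at 650 nm. Values are residual activity versus 5% DMSO carrier controls.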

Chain of E. coli MurD (P14900 whole entry): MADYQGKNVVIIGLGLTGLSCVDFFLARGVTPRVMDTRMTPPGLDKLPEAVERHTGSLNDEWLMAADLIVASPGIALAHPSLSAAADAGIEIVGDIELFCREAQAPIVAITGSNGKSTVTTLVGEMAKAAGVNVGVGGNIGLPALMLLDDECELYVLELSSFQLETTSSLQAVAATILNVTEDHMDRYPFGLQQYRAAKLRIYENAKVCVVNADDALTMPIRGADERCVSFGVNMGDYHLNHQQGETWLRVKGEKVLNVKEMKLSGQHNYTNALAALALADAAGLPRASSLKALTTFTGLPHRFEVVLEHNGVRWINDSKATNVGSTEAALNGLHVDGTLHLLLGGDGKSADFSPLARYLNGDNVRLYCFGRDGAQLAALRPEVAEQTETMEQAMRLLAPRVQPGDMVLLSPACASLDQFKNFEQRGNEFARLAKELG

Compound	remaining activity at 100 µM [%]
CCCN1CCCC(c2ccc(Nc3nc(Nc4cc(F)ccc4C(N)=O)c4cc[nH]c4n3)c(OC)c2)C1 (centres unmarked) [Compound 5]	10
COc1ccc(-c2nn3ncccc3c2-c2ccnc(Nc3cccc(C(F)(F)F)c3)n2)cc1 [Compound 3]	80
Nc1ccc(C#Cc2cncnc2Nc2ccc(OCc3cccc(F)c3)c(Cl)c2)cc1 [Compound 2]	51
N#Cc1ccc(Oc2nccc(-c3c(-c4ccc(F)cc4)ncn3C3CCNCC3)n2)cc1 [Compound 4]	27
CN1CCC(n2cnc(-c3ccc(F)cc3)c2-c2ccnc(N)n2)CC1 [SB-220455]	81
Fc1ccc(-c2ncn(C3CCNCC3)c2-c2ccnc(Oc3ccc(F)c(F)c3)n2)cc1 [SB-253228]	40
Cc1cc(-c2ccccn2)cc(C)c1/C=C/c1cncc(-c2nn[nH]n2)c1 [GW459057A]	83
c1ccc(Nc2ncc(-c3ccccc3)o2)cc1 [GW549390X]	92
NC(=O)Cc1ccccc1Oc1nccc(-c2c(-c3ccc(F)cc3)ncn2C2CCNCC2)n1 [SB-264865]	82

Same assay, conditions: Table 1; read-out: MurD IC50

Compound	IC50 [µM]
CCCN1CCCC(c2ccc(Nc3nc(Nc4cc(F)ccc4C(N)=O)c4cc[nH]c4n3)c(OC)c2)C1 (centres unmarked) [Compound 5]	32
Nc1ccc(C#Cc2cncnc2Nc2ccc(OCc3cccc(F)c3)c(Cl)c2)cc1 [Compound 2]	104
N#Cc1ccc(Oc2nccc(-c3c(-c4ccc(F)cc4)ncn3C3CCNCC3)n2)cc1 [Compound 4]	63

Same assay, conditions: Table S2

Compound	residual activity printed in column IC50 MurD [%]
COc1ccc(-c2nn3ncccc3c2-c2ccnc(Nc3cccc(C(F)(F)F)c3)n2)cc1 [Compound 3]	83

Same assay, conditions: ligand efficiency, LE = (1.37 × pIC50)/HAC

Compound	LE (MurD)
CCCN1CCCC(c2ccc(Nc3nc(Nc4cc(F)ccc4C(N)=O)c4cc[nH]c4n3)c(OC)c2)C1 (centres unmarked) [Compound 5]	0.16
Nc1ccc(C#Cc2cncnc2Nc2ccc(OCc3cccc(F)c3)c(Cl)c2)cc1 [Compound 2]	0.17
N#Cc1ccc(Oc2nccc(-c3c(-c4ccc(F)cc4)ncn3C3CCNCC3)n2)cc1 [Compound 4]	0.17

Same assay, conditions: residual activity at 100 µM compound; Table 1

Compound	MurD RA [%]
CCCN1CCCC(c2ccc(Nc3nc(Nc4cc(F)ccc4C(N)=O)c4cc[nH]c4n3)c(OC)c2)C1 (centres unmarked) [Compound 5]	10
COc1ccc(-c2nn3ncccc3c2-c2ccnc(Nc3cccc(C(F)(F)F)c3)n2)cc1 [Compound 3]	83
Nc1ccc(C#Cc2cncnc2Nc2ccc(OCc3cccc(F)c3)c(Cl)c2)cc1 [Compound 2]	51
N#Cc1ccc(Oc2nccc(-c3c(-c4ccc(F)cc4)ncn3C3CCNCC3)n2)cc1 [Compound 4]	27

Target: E. coli MurC (Escherichia coli, UniProt P17952)
Assay: Malachite green inhibition assay, MurC
Type: biochemical
Details: 0.25 h, Table S1, PKIS screening; read-out: RA [%] at 100 µM MurC

Chain of E. coli MurC (P17952 whole entry): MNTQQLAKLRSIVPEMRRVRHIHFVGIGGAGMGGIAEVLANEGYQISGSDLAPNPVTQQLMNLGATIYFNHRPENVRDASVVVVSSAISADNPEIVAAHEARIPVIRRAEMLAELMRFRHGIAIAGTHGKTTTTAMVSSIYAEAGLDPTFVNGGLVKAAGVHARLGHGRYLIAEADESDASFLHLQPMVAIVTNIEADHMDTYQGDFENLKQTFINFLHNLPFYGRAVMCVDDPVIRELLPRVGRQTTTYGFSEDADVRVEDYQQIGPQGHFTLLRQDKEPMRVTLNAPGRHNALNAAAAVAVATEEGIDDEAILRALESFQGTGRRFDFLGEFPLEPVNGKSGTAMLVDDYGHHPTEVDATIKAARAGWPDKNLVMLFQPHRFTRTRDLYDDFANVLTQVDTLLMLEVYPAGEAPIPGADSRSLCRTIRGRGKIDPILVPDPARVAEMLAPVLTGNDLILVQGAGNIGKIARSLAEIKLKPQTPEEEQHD

Compound	remaining activity at 100 µM [%]
CCCN1CCCC(c2ccc(Nc3nc(Nc4cc(F)ccc4C(N)=O)c4cc[nH]c4n3)c(OC)c2)C1 (centres unmarked) [Compound 5]	29
Nc1ccc(C#Cc2cncnc2Nc2ccc(OCc3cccc(F)c3)c(Cl)c2)cc1 [Compound 2]	43
Fc1ccc(-c2ncn(C3CCNCC3)c2-c2ccnc(Oc3ccc(F)c(F)c3)n2)cc1 [SB-253228]	32
Cc1cc(-c2ccccn2)cc(C)c1/C=C/c1cncc(-c2nn[nH]n2)c1 [GW459057A]	59
c1ccc(Nc2ncc(-c3ccccc3)o2)cc1 [GW549390X]	85
NC(=O)Cc1ccccc1Oc1nccc(-c2c(-c3ccc(F)cc3)ncn2C2CCNCC2)n1 [SB-264865]	66

Same assay, conditions: 0.25 h, read-out: RA [%] at 100 µM MurC, Table S1, PKIS screening

Compound	remaining activity at 100 µM [%]
COc1ccc(-c2nn3ncccc3c2-c2ccnc(Nc3cccc(C(F)(F)F)c3)n2)cc1 [Compound 3]	10
N#Cc1ccc(Oc2nccc(-c3c(-c4ccc(F)cc4)ncn3C3CCNCC3)n2)cc1 [Compound 4]	48
CN1CCC(n2cnc(-c3ccc(F)cc3)c2-c2ccnc(N)n2)CC1 [SB-220455]	76

Same assay, conditions: Table 1; read-out: MurC IC50

Compound	IC50 [µM]
CCCN1CCCC(c2ccc(Nc3nc(Nc4cc(F)ccc4C(N)=O)c4cc[nH]c4n3)c(OC)c2)C1 (centres unmarked) [Compound 5]	62
COc1ccc(-c2nn3ncccc3c2-c2ccnc(Nc3cccc(C(F)(F)F)c3)n2)cc1 [Compound 3]	74
Nc1ccc(C#Cc2cncnc2Nc2ccc(OCc3cccc(F)c3)c(Cl)c2)cc1 [Compound 2]	62
N#Cc1ccc(Oc2nccc(-c3c(-c4ccc(F)cc4)ncn3C3CCNCC3)n2)cc1 [Compound 4]	90

Same assay, conditions: residual activity at 100 µM compound; Table 1

Compound	MurC RA [%]
CCCN1CCCC(c2ccc(Nc3nc(Nc4cc(F)ccc4C(N)=O)c4cc[nH]c4n3)c(OC)c2)C1 (centres unmarked) [Compound 5]	29
COc1ccc(-c2nn3ncccc3c2-c2ccnc(Nc3cccc(C(F)(F)F)c3)n2)cc1 [Compound 3]	10
Nc1ccc(C#Cc2cncnc2Nc2ccc(OCc3cccc(F)c3)c(Cl)c2)cc1 [Compound 2]	43
N#Cc1ccc(Oc2nccc(-c3c(-c4ccc(F)cc4)ncn3C3CCNCC3)n2)cc1 [Compound 4]	48

Test system: human kinases
Assay: not given
Details: over 200 kinase activity assays and 68 DSF assays; cited from earlier work

Compound	activity at human kinases
CCCN1CCCC(c2ccc(Nc3nc(Nc4cc(F)ccc4C(N)=O)c4cc[nH]c4n3)c(OC)c2)C1 (centres unmarked) [Compound 5]	appreciable activity
Nc1ccc(C#Cc2cncnc2Nc2ccc(OCc3cccc(F)c3)c(Cl)c2)cc1 [Compound 2]	no appreciable activity
N#Cc1ccc(Oc2nccc(-c3c(-c4ccc(F)cc4)ncn3C3CCNCC3)n2)cc1 [Compound 4]	no appreciable activity

Target: E. coli MurE (Escherichia coli, UniProt P22188)
Assay: Malachite green inhibition assay, MurE
Type: biochemical
Details: Table 1; read-out: MurE IC50
Method: Inhibition of the Mur ligases was determined using the malachite green assay, with slight modifications.
MurE: 50 mM Hepes, pH 8.0, 15 mM MgCl2, 0.005% Triton X-114, 60 µM meso-diaminopimelic acid, 100 µM uridine-5′-diphosphate-N-acetylmuramoyl-L-alanine-D-glutamate, 1000 µM ATP, and purified E. coli MurE[27].
In all cases, the final concentration of DMSO was 5% (v/v). After incubation for 15 min at 37 °C, the enzyme reaction was terminated by addition of 100 µM Biomol green reagent, and the absorbance was measured at 650 nm after 5 min. All of the experiments were run in duplicate. Residual activities were calculated with respect to control assays without the tested compounds, but with the 5% DMSO carrier.
The published kinase inhibitor set compounds were evaluated for inhibition of MurC, D and F ligases from E. coli using the Malachite green assay, which detects orthophosphate generated during enzymatic reactions. To avoid non-specific inhibition due to aggregate formation, all of the compounds were tested in the presence of detergent (0.005% Triton-X114). The data are presented as the residual activities of these Mur ligases in the presence of 100 µM of each test compound (Supporting Information Table S1). […]. The IC50 values against MurC, D, E and F were determined for the selected hit compounds – one representative compound from each structural class was chosen: compound 1[33], aza-stilbene derivative; compound 2[34], alkynyl pyrimidine; compound 3[35], pyrazolo [1,5]-b]pyridazine; compound 4[36], phenoxypyrimidine; compound 5[37], 4,6-bis-anilino-1H-pyrrolo[2,3-pyrimidine (Table 1). […]. […] Among the hits, compounds for further mechanistic studies were chosen on the basis of their ligand efficiency. Ligand efficiency quantifies the molecular properties, particularly size and lipophilicity and is used as a selection criterion for structurally different compounds as more ‘efficient’ ligands have the potential to control for the inflation of these properties[38] Thus ligand efficiencies were calculated for the four hits (Supporting Information Table S2)[39]^,[40], and compound 1 was selected as the most promising for additional studies. Additionally, regarding the data of profiled compounds in large panels of human kinase assays[41] […] To provide sufficient amounts of compound 1 for kinetic and NMR studies, it was resynthesized according to the synthetic procedures (Figure 2) described in the literature.

Chain of E. coli MurE (P22188 whole entry): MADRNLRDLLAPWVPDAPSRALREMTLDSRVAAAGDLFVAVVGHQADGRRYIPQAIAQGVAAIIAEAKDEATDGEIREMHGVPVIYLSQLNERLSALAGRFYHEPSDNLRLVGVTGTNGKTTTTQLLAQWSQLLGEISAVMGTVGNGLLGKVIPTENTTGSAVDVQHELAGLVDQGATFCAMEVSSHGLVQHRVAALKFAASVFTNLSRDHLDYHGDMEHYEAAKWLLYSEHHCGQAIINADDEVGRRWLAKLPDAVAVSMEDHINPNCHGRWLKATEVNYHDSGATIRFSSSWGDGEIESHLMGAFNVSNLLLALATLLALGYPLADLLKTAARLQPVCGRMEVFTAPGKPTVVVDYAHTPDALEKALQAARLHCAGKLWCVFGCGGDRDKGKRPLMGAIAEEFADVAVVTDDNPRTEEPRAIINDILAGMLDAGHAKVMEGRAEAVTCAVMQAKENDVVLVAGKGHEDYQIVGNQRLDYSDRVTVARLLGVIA

Compound	IC50 [µM]
CCCN1CCCC(c2ccc(Nc3nc(Nc4cc(F)ccc4C(N)=O)c4cc[nH]c4n3)c(OC)c2)C1 (centres unmarked) [Compound 5]	58
Nc1ccc(C#Cc2cncnc2Nc2ccc(OCc3cccc(F)c3)c(Cl)c2)cc1 [Compound 2]	157
N#Cc1ccc(Oc2nccc(-c3c(-c4ccc(F)cc4)ncn3C3CCNCC3)n2)cc1 [Compound 4]	139

Same assay, conditions: Table S2

Compound	residual activity printed in column IC50 MurE [%]
COc1ccc(-c2nn3ncccc3c2-c2ccnc(Nc3cccc(C(F)(F)F)c3)n2)cc1 [Compound 3]	84

Same assay, conditions: residual activity at 100 µM compound; Table 1

Compound	MurE RA [%]
CCCN1CCCC(c2ccc(Nc3nc(Nc4cc(F)ccc4C(N)=O)c4cc[nH]c4n3)c(OC)c2)C1 (centres unmarked) [Compound 5]	26
COc1ccc(-c2nn3ncccc3c2-c2ccnc(Nc3cccc(C(F)(F)F)c3)n2)cc1 [Compound 3]	84
Nc1ccc(C#Cc2cncnc2Nc2ccc(OCc3cccc(F)c3)c(Cl)c2)cc1 [Compound 2]	50
N#Cc1ccc(Oc2nccc(-c3c(-c4ccc(F)cc4)ncn3C3CCNCC3)n2)cc1 [Compound 4]	56
